These results are taken from US20160151380A1, “THERAPIES FOR DISEASES CAUSED BY ARTHROPOD-BORNE PARASITES” (THE REGENTS OF THE UNIVERSITY OF CALIFORNIA, priority 2013, published 2016).

Entries after “also recorded” stand apart in the source; their conditions may differ.

For one data set, the target named is JNK3 (Homo sapiens, UniProt P53779). The settings on record: cited from earlier work.
The target in another data set is MAPK14 p38 (Homo sapiens, UniProt Q16539). Conditions: cited from earlier work.
MAPK14 p38, sequence (Q16539 whole entry): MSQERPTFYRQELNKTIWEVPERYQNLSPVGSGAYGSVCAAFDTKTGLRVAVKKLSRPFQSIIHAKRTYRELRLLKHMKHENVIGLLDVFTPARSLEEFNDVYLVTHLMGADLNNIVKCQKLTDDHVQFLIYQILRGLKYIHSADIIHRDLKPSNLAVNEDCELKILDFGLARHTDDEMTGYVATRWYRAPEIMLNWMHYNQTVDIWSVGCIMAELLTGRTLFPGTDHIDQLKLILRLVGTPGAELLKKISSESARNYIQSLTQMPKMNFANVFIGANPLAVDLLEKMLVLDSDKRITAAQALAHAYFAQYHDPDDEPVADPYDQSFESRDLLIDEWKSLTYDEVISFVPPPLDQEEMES
The target of the next data set is JNK1 (Homo sapiens, UniProt P45983). The settings on record: cited from earlier work.
JNK1, sequence (P45983 whole entry, species assumed): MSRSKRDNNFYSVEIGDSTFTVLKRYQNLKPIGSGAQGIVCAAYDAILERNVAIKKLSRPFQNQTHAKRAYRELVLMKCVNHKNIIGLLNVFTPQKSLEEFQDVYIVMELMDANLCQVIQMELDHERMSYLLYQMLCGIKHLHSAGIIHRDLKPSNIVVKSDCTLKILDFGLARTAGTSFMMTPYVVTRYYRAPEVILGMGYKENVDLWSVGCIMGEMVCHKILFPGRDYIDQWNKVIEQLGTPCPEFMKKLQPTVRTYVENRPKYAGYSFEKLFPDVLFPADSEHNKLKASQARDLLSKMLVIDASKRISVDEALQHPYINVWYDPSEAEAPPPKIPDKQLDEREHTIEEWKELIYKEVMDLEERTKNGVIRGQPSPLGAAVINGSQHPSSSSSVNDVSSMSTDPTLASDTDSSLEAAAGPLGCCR
Another data set concerns the target T1, PKCepsilon (Homo sapiens, UniProt Q02156).
T1 sequence (Q02156 1-737): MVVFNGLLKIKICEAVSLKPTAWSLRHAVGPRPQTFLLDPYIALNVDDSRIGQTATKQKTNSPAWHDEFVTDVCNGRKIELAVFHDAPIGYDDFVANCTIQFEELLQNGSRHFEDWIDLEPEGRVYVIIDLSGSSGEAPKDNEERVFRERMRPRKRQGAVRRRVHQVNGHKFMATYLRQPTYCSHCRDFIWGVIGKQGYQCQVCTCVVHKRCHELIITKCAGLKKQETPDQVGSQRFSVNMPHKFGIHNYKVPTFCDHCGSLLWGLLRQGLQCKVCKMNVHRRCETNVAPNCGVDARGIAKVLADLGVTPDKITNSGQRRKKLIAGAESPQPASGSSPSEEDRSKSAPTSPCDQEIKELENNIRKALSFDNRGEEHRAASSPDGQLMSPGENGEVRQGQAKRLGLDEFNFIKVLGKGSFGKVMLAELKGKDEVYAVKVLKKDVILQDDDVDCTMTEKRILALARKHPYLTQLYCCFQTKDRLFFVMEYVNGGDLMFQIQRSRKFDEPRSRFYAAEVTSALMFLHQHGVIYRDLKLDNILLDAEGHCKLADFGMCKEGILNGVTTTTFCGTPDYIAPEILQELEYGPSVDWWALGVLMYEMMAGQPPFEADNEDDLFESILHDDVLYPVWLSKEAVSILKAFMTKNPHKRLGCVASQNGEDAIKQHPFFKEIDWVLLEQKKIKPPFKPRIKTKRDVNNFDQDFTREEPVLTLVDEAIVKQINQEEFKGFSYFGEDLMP
The settings on record: PKCepsilon; cited from earlier work.

Data set [1] deals with Plasmodium falciparum. Kind of data set: P. falciparum growth in vitro (flow cytometry). It counts as cell-based. The settings on record: 1 μM or 10 μM, 48 h, relative to vehicle control.
Another data set concerns anti-parasite genes. Kind of data set: Midgut expression of anti-parasite/immune genes in A. stephensi (quantitative PCR). In kind it is in vivo, Anopheles stephensi. The settings on record: fed killed lysate of P. falciparum with BIRB 796; 6 h post-feeding.
Data set [2] deals with Anopheles stephensi p38 MAPK. Kind of data set: MK2 phosphorylation in LPS-stimulated ASE cells (western blot). In kind it is cell-based. The settings on record: ASE cells pre-incubated with 10 μM inhibitor, 2 h later 1 μg/ml LPS. A general note: Immunoblotting shows a protein as a band on a membrane.
In data set [3] the test system is Plasmodium falciparum. Kind of data set: P. falciparum development in A. stephensi after supplemented bloodmeal (oocysts). It counts as in vivo. The settings on record: 10 μM in bloodmeal. As to the method: Midguts were dissected and oocysts were counted at 10 days following infection. Dots in FIG. 3A and FIG. 3C represent oocyst numbers in one midgut, while percentage positive midguts or percentage of midguts with at least one oocyst are represented as means in FIG. 3B and FIG. 3D. Mean oocysts per midgut (lines, numbers on graph) were analyzed by ANOVA (alpha=0.05) for overall significance and by Student-Neuman-Keuls for pairwise comparisons using Graphpad Prism version 4.0 (San Diego, Calif.). Prevalences of mosquito infection (indicated on graph) were analyzed by chi-square (alpha=0.05).

Another data set deals with A. freeborni. Kind of data set: Mosquito lifespan, A. freeborni. In kind it is in vivo. The settings on record: 1 μM or 10 μM daily in water or once weekly via bloodmeal.
A further data set has as its system A. stephensi. Kind of data set: Mosquito lifespan, A. stephensi. It counts as in vivo, Anopheles stephensi. Conditions: 1 μM or 10 μM daily in water or once weekly via bloodmeal.

JNK3, sequence (P53779 whole entry, species assumed): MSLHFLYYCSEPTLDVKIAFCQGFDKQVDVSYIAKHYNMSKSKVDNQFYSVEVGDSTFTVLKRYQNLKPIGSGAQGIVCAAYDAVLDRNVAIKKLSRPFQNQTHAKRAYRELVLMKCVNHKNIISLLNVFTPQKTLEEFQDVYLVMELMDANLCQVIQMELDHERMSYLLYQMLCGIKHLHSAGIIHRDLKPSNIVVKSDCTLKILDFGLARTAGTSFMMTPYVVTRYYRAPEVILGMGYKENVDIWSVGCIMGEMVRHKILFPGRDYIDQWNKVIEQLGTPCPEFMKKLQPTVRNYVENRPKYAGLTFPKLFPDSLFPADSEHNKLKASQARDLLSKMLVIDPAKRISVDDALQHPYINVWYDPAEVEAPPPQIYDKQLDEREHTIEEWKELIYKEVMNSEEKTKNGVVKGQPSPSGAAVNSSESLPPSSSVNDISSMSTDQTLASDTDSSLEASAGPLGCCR

Usually IC50 stands for the concentration at which inhibition is half-maximal. As to `Cc1ccc(C(=O)Nc2cccc(C(F)(F)F)c2)cc1-c1ccc2nc(NCCN3CCOCC3)ncc2c1` [AMG-47a], the IC50 at JNK3 was 145 nM; on MAPK14 p38 it was 3 nM.

In the case of `O=C(Nc1c[nH]nc1-c1nc2cc(CN3CCOCC3)ccc2[nH]1)NC1CC1` [AT9283], the IC50 at JNK1, on PKCepsilon, on JNK3 and on MAPK14 p38 was over 100 nM each time.

Take `Cc1ccc(-n2nc(C(C)(C)C)cc2NC(=O)Nc2ccc(OCCN3CCOCC3)c3ccccc23)cc1` [BIRB 796, 1-[5-tert-butyl-2-(4-methylphenyl)pyrazol-3-yl]-3-[4-(2-morpholin-4-ylethoxy)naphthalen-1-yl]urea]: in the data set on Plasmodium falciparum [1], the “P. falciparum growth in vitro (parasitemia)” value is on record as “Neither inhibitor significantly altered parasite growth; also recorded: no activity”. The “immune gene expression levels in midgut” value in the data set with anti-parasite genes was “significantly different from controls”.

With `COc1ccc(N(C(=O)Nc2c(C)cccc2C)c2cc(Nc3ccc(N4CCN(C)CC4)cc3)ncn2)c(OC)c1` [HG-9-91-01], the figures for the IC50 at JNK3 and at MAPK14 p38 were under 800 nM and under 600 nM, respectively.

`O=C(O)[C@]1(Cc2cccc(Nc3nccs3)n2)CC[C@@H](Oc2cccc(Cl)c2F)CC1` [MK5108]: the IC50 is over 1000 nM on JNK1, over 1000 nM on PKCepsilon and over 100 nM at JNK3.

With `C[S+]([O-])c1ccc(-c2nc(-c3ccc(F)cc3)c(-c3ccncc3)[nH]2)cc1` (centres unmarked) [SB203580, 4-[4-(4-fluorophenyl)-2-(4-methylsulfinylphenyl)-1H-imidazol-5-yl]pyridine], in the data set with Plasmodium falciparum [1], the “P. falciparum growth in vitro (parasitemia)” value was “Neither inhibitor significantly altered parasite growth; also recorded: no such effects”. In addition, the p-MK2 levels result in data set [2] was “undetectable”. The infection prevalence entry in the data set on Plasmodium falciparum [3] (10 days) is given as “significantly reduced”. In addition, the P. falciparum oocysts/midgut entry with Plasmodium falciparum [3] (oocysts counted at 10 days) is “significantly reduced”. Besides, in the data set on mosquito p38 MAPK, the “p38 MAPK activity in the mosquito in vivo” value was “significantly reduced”.

Consider `Oc1c2ccccc2c2c3c(cccc13)N=N2` [SP600125], for which the impact on lifespan entry in the data set with A. freeborni and in the data set on A. stephensi was “no negative impact” throughout.

In general, Kd refers to the equilibrium constant for the complex coming apart. Turning to `C=CC(=O)Nc1cccc(Oc2nc(Nc3ccc(N4CCN(C)CC4)cc3)ncc2Cl)c1` [WZ3146], the Kd on JNK1, on PKCepsilon and at JNK3 was over 1000 nM each time.

With `C=CC(=O)Nc1cccc(Oc2nc(Nc3ccc(N4CCN(C)CC4)cc3OC)ncc2Cl)c1` [WZ4002], the Kd on JNK1, at PKCepsilon and at JNK3 was over 1000 nM throughout.
